The target in this assay is T1, rat mGluR5 receptor (Rattus norvegicus, UniProt P31424).
T1 construct: expressed in transfected cells; host or cells: HEK-293
The assay can be described thus: [3H]-MPEP displacement binding assay, HEK-293 cell membranes expressing rat mGluR5. The settings on record: Biological Activity, Table 2A; for inhibition at 10 µM: @ 10 μM compound, read-out: PCT INHIB (%) @ 10 μM; for pKi: read-out: Median Ki. The gist of the method: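 Membranes from HEK-293 cells expressing rat mGluR5 (12-25 μg protein), incubated 60 min at room temperature with 4 nM [3H]-MPEP in 50 mM Tris pH 7.5, then filtered. Nonspecific binding defined with 10 μM MPEP.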

For 37 compounds, inhibition and Ki results are on record in patent US20090325964A1, “Piperazine Metabotropic Glutamate Receptor 5 (MGLUR5) Negative Allosteric Modulators For Anxiety/Depression” (Wyeth, priority 2008, published 2009).

pKi: −log10 of the molar value. Where only a bound is given, the exact number is not on record here.

T1 sequence (P31424 21-1203): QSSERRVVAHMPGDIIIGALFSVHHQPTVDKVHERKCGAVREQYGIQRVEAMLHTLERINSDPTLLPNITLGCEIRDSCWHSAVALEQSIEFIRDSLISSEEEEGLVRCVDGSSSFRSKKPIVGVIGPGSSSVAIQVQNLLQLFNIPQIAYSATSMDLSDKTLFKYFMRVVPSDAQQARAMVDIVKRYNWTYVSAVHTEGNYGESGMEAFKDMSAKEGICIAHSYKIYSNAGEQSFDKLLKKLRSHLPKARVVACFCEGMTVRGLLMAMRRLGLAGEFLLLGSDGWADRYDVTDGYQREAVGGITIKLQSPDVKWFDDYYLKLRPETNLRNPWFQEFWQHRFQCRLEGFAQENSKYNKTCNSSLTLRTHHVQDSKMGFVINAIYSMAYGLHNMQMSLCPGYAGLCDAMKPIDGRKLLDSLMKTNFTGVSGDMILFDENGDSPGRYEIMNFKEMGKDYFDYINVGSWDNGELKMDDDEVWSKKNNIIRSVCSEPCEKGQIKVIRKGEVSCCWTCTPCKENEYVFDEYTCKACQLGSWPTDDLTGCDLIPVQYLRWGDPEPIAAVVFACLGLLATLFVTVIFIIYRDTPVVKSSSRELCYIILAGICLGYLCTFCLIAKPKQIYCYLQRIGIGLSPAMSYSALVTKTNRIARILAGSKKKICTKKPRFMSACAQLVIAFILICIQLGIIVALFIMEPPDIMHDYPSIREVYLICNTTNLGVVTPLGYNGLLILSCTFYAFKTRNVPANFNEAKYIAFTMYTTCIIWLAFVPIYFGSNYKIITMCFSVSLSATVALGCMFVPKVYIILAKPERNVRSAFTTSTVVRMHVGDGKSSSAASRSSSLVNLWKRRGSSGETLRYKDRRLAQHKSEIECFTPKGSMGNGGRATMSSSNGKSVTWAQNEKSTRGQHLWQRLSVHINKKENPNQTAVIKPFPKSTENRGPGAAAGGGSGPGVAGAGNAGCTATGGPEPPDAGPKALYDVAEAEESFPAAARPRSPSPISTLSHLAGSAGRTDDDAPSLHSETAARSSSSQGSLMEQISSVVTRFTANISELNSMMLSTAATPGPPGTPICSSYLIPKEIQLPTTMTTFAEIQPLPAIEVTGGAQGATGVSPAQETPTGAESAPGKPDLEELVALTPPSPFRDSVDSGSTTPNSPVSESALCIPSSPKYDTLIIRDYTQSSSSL

Consider `CSc1ccccc1N1CCN(C(=O)c2cccc(C#Cc3ccccc3)c2)CC1` [Compound 80, 1-[2-(methylthio)phenyl]-4-[3-(phenylethynyl)benzoyl]piperazine], for which the inhibition at 10 µM came out at 24%.
With `COc1cccc(N2CCN(C(=O)c3cccc(C#Cc4ccccc4)c3)CC2)c1` [Compound 81, 1-(3-methoxyphenyl)-4-[3-(phenylethynyl)benzoyl]piperazine], the inhibition at 10 µM came out at 78% and the pKi is 5.47.
As to `O=C(c1cccc(C#Cc2ccccc2)c1)N1CCN(c2cccc(Cl)c2)CC1` [Compound 82, 1-(3-chlorophenyl)-4-[3-(phenylethynyl)benzoyl]piperazine], the inhibition at 10 µM stood at 58% and the pKi is 5.56.
Consider `O=C(c1cccc(C#Cc2ccccc2)c1)N1CCN(c2ccc(O)cc2)CC1` [Compound 83, 4-{4-[3-(phenylethynyl)benzoyl]piperazin-1-yl}phenol], for which the inhibition at 10 µM was 74% and the pKi is under 5.00.
On to `O=C(c1cccc(C#Cc2ccccc2)c1)N1CCN(c2cc(Cl)cc(Cl)c2)CC1` [Compound 84, 1-(3,5-dichlorophenyl)-4-[3-(phenylethynyl)benzoyl]piperazine], for which the inhibition at 10 µM was found to be 0%.
On the same count and under the same terms, the result for `O=C(c1cccc(C#Cc2ccccc2)c1)N1CCN(c2cccc(C(F)(F)F)c2)CC1` [Compound 85, 1-[3-(phenylethynyl)benzoyl]-4-[3-(trifluoromethyl)phenyl]piperazine] reads 32%; that for `O=C(c1cccc(C#Cc2ccccc2)c1)N1CCN(c2cnccn2)CC1` [Compound 86, 2-{4-[3-(phenylethynyl)benzoyl]piperazin-1-yl}pyrazine], 85%.
In the case of `O=C(c1cncc(C#Cc2ccccc2)c1)N1CCN(c2ccccn2)CC1` [Compound 87, 1-{[5-(phenylethynyl)pyridin-3-yl]carbonyl}-4-pyridin-2-ylpiperazine], the inhibition at 10 µM was 56% and the negative logarithm of the Ki (pKi) is 5.48.
As for `O=C(c1ccc(F)c(C#Cc2ccccc2)c1)N1CCN(c2ccccn2)CC1` [Compound 89, 1-[4-fluoro-3-(phenylethynyl)benzoyl]-4-pyridin-2-ylpiperazine], the inhibition at 10 µM was 51% and the pKi was 7.30.
Consider `Cc1c(C#Cc2ccccc2)cccc1C(=O)N1CCN(c2ccccn2)CC1` [Compound 91, 1-[2-methyl-3-(phenylethynyl)benzoyl]-4-pyridin-2-ylpiperazine], for which the inhibition at 10 µM was determined as 18%.
On the same count and under the same terms, the result for `O=C(c1cccc(C#Cc2cccnc2)c1)N1CCN(c2ccccn2)CC1` [Compound 93, 1-pyridin-2-yl-4-[3-(pyridin-3-ylethynyl)benzoyl]piperazine] reads 26%.
For the compound `O=C(c1cccc(C#Cc2ccccn2)c1)N1CCN(c2cnccn2)CC1` [Compound 94, 2-{4-[3-(pyridin-2-ylethynyl)benzoyl]piperazin-1-yl}pyrazine], the inhibition at 10 µM was determined as 79% and the pKi was 6.40.
In the case of `N#Cc1ccc(N2CCN(C(=O)c3cccc(C#Cc4ccccn4)c3)CC2)nc1` [Compound 96, 6-{4-[3-(pyridin-2-ylethynyl)benzoyl]piperazin-1-yl}nicotinonitrile], the inhibition at 10 µM turned out to be 50% and the negative-log Ki (pKi) is 5.49.
Turning to `O=C(c1cccc(C#Cc2ccccn2)c1)N1CCN(c2nnn[nH]2)CC1` [Compound 97, 1-[3-(pyridin-2-ylethynyl)benzoyl]-4-(1H-tetrazol-5-yl)piperazine], the inhibition at 10 µM came out at 0%.
Regarding `CC1CN(c2ccccn2)CCN1C(=O)c1cccc(C#Cc2ccccn2)c1` (stereo not drawn) [Compound 98, 2-methyl-4-pyridin-2-yl-1-[3-(pyridin-2-ylethynyl)benzoyl]piperazine], the inhibition at 10 µM turned out to be 72% and the pKi is 6.17.
In the case of `O=C(c1cccc(C#Cc2ccccn2)c1)N1CCN(c2ncc(O)cn2)CC1` [Compound 99, 2-{4-[3-(pyridin-2-ylethynyl)benzoyl]piperazin-1-yl}pyrimidin-5-ol], the inhibition at 10 µM is 64% and the negative logarithm of the Ki (pKi) was 5.84.
Regarding `Cc1cc(C)nc(N2CCN(C(=O)c3cccc(C#Cc4ccccn4)c3)CC2)n1` [Compound 100, 4,6-dimethyl-2-{4-[3-(pyridin-2-ethynyl)benzoyl]piperazin-1-yl}pyrimidine], the inhibition at 10 µM is 55% and the negative logarithm of the Ki (pKi) was 5.66.
`COc1cccnc1N1CCN(C(=O)c2cccc(C#Cc3ccccn3)c2)CC1` [Compound 101, 1-(3-methoxypyridin-2-yl)-4-[3-(pyridin-2-ylethynyl)benzoyl]piperazine]: the inhibition at 10 µM is 52% and the negative logarithm of the Ki (pKi) was 5.63.
On to `COc1nsnc1N1CCN(C(=O)c2cccc(C#Cc3ccccn3)c2)CC1` [Compound 102, 1-(4-methoxy-1,2,5-thiadiazol-3-yl)-4-[3-(pyridin-2-ylethynyl)benzoyl]piperazine], for which the inhibition at 10 µM was determined as 92% and the pKi was 7.10.
As to `Cc1cnc(C)c(N2CCN(C(=O)c3cccc(C#Cc4ccccn4)c3)CC2)n1` [Compound 103, 2,5-dimethyl-3-{4-[3-(pyridin-2-ylethynyl)benzoyl]piperazin-1-yl}pyrazine], the inhibition at 10 µM turned out to be 16%.
For the compound `O=C(c1cccc(C#Cc2ccccn2)c1)N1CCN(c2cncc(Cl)n2)CC1` [Compound 104, 2-chloro-6-{4-[3-(pyridin-2-ylethynyl)benzoyl]piperazin-1-yl}pyrazine], the inhibition at 10 µM is 71% and the pKi is 5.84.
The like results for `CC1CN(C(=O)c2cccc(C#Cc3ccccn3)c2)CCN1c1ccccn1` (stereo not drawn) [Compound 105, 2-methyl-1-pyridin-2-yl-4-[3-(pyridin-2-ylethynyl)benzoyl]piperazine] were, in that order, 58% and 6.08.
With `O=C(c1cccc(C#Cc2ccccn2)c1)N1CCN(c2nccc(-c3ccccc3)n2)CC1` [Compound 106, 4-phenyl-2-{4-[3-(pyridin-2-ylethynyl)benzoyl]piperazin-1-yl}pyrimidine], the inhibition at 10 µM was determined as 86% and the negative-log Ki (pKi) was 8.66.
With `O=C(c1cccc(C#Cc2ccccc2)c1)N1CCN(c2ccc(C(F)(F)F)cn2)CC1` [Compound 108, 1-[3-(phenylethynyl)benzoyl]-4-[5-(trifluoromethyl)pyridin-2-yl]piperazine], the inhibition at 10 µM is 0%.
Take `Cc1cccc(N2CCN(C(=O)c3cccc(C#Cc4ccccc4)c3)CC2)n1` [Compound 110, 1-(6-methylpyridin-2-yl)-4-[3-(phenylethynyl)benzoyl]piperazine]: the inhibition at 10 µM stood at 68% and the negative logarithm of the Ki (pKi) was 5.47.
With `Cc1cc(C)nc(N2CCN(C(=O)c3cccc(C#Cc4ccccc4)c3)CC2)n1` [Compound 111, 4,6-dimethyl-2-{4-[3-(phenylethynyl)benzoyl]piperazin-1-yl}pyrimidine], the inhibition at 10 µM is 0%.
`COc1ccc(C(=O)N2CCN(c3ncccn3)CC2)cc1C#Cc1ccccc1` [Compound 112, 2-{4-[4-methoxy-3-(phenylethynyl)benzoyl]piperazin-1-yl}pyrimidine]: the inhibition at 10 µM worked out at 90% and the negative-log Ki (pKi) was 7.20.
The like results for `COc1ccc(C(=O)N2CCN(c3ccc(C#N)cn3)CC2)cc1C#Cc1ccccc1` [Compound 113, 6-{4-[4-methoxy-3-(phenylethynyl)benzoyl]piperazin-1-yl}nicotinonitrile] were, in that order, 81% and 6.45.
As to `COc1ccc(C(=O)N2CCN(c3ccc(C(F)(F)F)cn3)CC2)cc1C#Cc1ccccc1` [Compound 114, 1-[4-methoxy-3-(phenylethynyl)benzoyl]-4-[5-(trifluoromethyl)pyridin-2-yl]piperazine], the inhibition at 10 µM stood at 26%.
Take `COc1ccc(C(=O)N2CCN(c3cc(C)ccn3)CC2)cc1C#Cc1ccccc1` [Compound 115, 1-[4-methoxy-3-(phenylethynyl)benzoyl]-4-(4-methylpyridin-2-yl]piperazine]: the inhibition at 10 µM came to 93% and the pKi is 8.50.
As for `COc1ccc(C(=O)N2CCN(c3cccc(C)n3)CC2)cc1C#Cc1ccccc1` [Compound 116, 1-[4-methoxy-3-(phenylethynyl)benzoyl]-4-(6-methylpyridin-2-yl]piperazine], the inhibition at 10 µM was determined as 77% and the pKi was 6.07.
`COc1ccc(C(=O)N2CCN(c3cccc(C(F)(F)F)n3)CC2)cc1C#Cc1ccccc1` [Compound 117, 1-[4-methoxy-3-(phenylethynyl)benzoyl]-4-[6-(trifluoromethyl)pyridin-2-yl]piperazine]: the inhibition at 10 µM amounted to 35%.
On to `COc1ccc(C(=O)N2CCN(c3ncccc3C#N)CC2)cc1C#Cc1ccccc1` [Compound 118, 2-{4-[4-methoxy-3-(phenylethynyl)benzoyl]piperazin-1-yl}nicotinonitrile], for which the inhibition at 10 µM worked out at 78% and the pKi is 5.75.
With `COc1ccc(C(=O)N2CCN(c3nc(C)cc(C)n3)CC2)cc1C#Cc1ccccc1` [Compound 119, 2-{4-[4-methoxy-3-(phenylethynyl)benzoyl]piperazin-1-yl}-4,6-dimethylpyrimidine], the inhibition at 10 µM amounted to 35%.
As to `O=C(c1ccnc(C#Cc2ccccc2)c1)N1CCN(c2ncccn2)CC1` [Compound 120, 2-{4-[2-(phenylethynyl)isonicotinoyl]piperazin-1-yl}pyrimidine], the inhibition at 10 µM turned out to be 49% and the pKi is 5.54.
For the compound `O=C(c1ccnc(C#Cc2ccccc2)c1)N1CCN(c2ccccn2)CC1` [Compound 121, 1-[2-(phenylethynyl)isonicotinoyl]-4-pyridin-2-ylpiperazine], the inhibition at 10 µM stood at 72% and the pKi was 5.95.
For the compound `N#Cc1ccc(N2CCN(C(=O)c3ccnc(C#Cc4ccccc4)c3)CC2)nc1` [Compound 122, 6-{4-[2-(phenylethynyl)isonicotinoyl]piperazin-1-yl}nicotinonitrile], the inhibition at 10 µM was 0%.
